These are literature values, as cited in patent US20120142631A1, “MEDICINAL ANTIDIAPER RASH CREAM INCORPORATING A BIOPOLYMER AND A PROCESS TO MAKE IT” (APEX LABORATORIES PRIVATE LIMITED, priority 2009, published 2012).

The structures appear in SMILES notation. Read-outs that look alike come from different tables or passages of the source.

As for `CCCCCCCCCCCCCC[N+](C)(C)C.[Br-]` [Cetrimide, tetradecyltrimethylammonium bromide], the Solubility entry is “freely soluble” (chloroform) and “practically insoluble” (ether). In addition, the Solubility / miscibility entry is listed as “freely soluble” (ethanol (95%)) and “freely soluble” (water).

For the molecule `CCCCCCCCCCCCC[N+](C)(C)Cc1ccccc1.[Cl-]` [Benzalkonium chloride, benzyl-dimethyl-tridecyl-azanium chloride], the Solubility result is recorded as “readily soluble” (acetone) and “readily soluble” (ethanol). Further, the Solubility / miscibility result runs as follows: (ethanol (95%)) “miscible”; (water) “miscible”.
